Assay results taken from US9969768B1 (KING SAUD UNIVERSITY, priority 2017, dated 2018).

Columns and labels:
[1] = test system: alloxan-induced diabetic mice; experiment: In vivo oral hypoglycemic activity, acute study; conditions: for % Change in SG: diabetic mice
Description: The percentage change in blood glucose levels in diabetic mice after oral administration of the test compounds, at a concentration of 200 μg/kg body weight, were determined at 2, 4, 6, and 24 hours.
The synthesized compounds were screened for hypoglycemic activity in vivo using the alloxan-induced diabetic mice model. For the acute study, animals were fasted overnight and the fasting blood serum glucose (SG) level was determined at 0 hours. Then the compounds were administered at a fixed dose of 200 μg/kg body weight orally (homogenized suspension in 0.5% carboxymethyl cellulose (CMC) with Tween 80). Animals in the vehicle group were given an equal amount of 0.5% CMC, while those in the control group were maintained as is. Blood samples were removed from all animals at 2, 4, 6 and 24 hours and percentage change in SG was calculated. See, Dunn, J. S., Letchie, N. G., “Experimental alloxan diabetes in the rat,” The Lancet 242(6265): 384-387 (1943); and Mourao R. H., Silva T. G., et al., “Synthesis and Biological Activity of Novel Acridinylidene and Benzylidene thiazolidinediones,” Eur. J. Med. Chem., 40: 1129-1133 (2005).

[2] = test system: alloxan-induced diabetic mice; experiment: In vivo oral hypoglycemic activity, sub-acute study
Description: Study animals were fasted overnight, and the fasting SG levels calculated at 0 days. The test compounds were administered at a fixed dose of 200 μg/kg body weight orally (homogenized suspension in 0.5% CMC and permissible amounts of Tween 80) for 21 days at a fixed time. After 21 days, treatment was stopped and animals were left for a rest period of 7 days. Animals in the vehicle group were given an equal amount of 0.5% CMC, while those in the control group were maintained as is. During the study, blood samples were removed from all animals at 7, 14, 21 and 28 days, and the percentage change in SG was calculated. The data obtained were analyzed by one-way ANOVA followed by the Dunnett test. The results were expressed as mean±standard error of mean (SEM) for each group, while p<0.01 or p<0.05 was considered to be statistically significant. The percentage changes in blood glucose levels after oral administration, at 200 μg/kg body weight, were evaluated, and are reported in Table 5.

[3] = target: T1, DPP-IV (Homo sapiens, UniProt P27487); experiment: DPP-IV inhibition activity (fluorescence); type: biochemical; conditions: mean ± S.E.M., n = 6
T1 construct: purchased Sigma
Description: A […] reaction system containing DPP-IV (Sigma), a test compound, and 25 mmol/L 4-(2-hydroxyethyl)-1-piperazineethanesulfonic acid (HEPES) buffer (containing 140 mmol/L NaCl, 1% Bovine serum albumin (BSA) and 80 mmol/L MgCl2) was pre-incubated at room temperature for 10 minutes. The reaction was initiated by the addition of […], and the reaction mixture was then incubated at room temperature for 25-45 minutes. […] A negative control (no test compound) and a blank control (no enzyme) were run simultaneously. The test compounds were initially assayed in duplicate at a concentration of 10 mg/mL.

[4] = test system: PPAR; experiment: PPAR agonist activity, PPRE-Luc dual luciferase reporter in HepG2 cells; type: cell-based; conditions: mean ± S.E.M., n = 6
Description: HepG2 cells were cultured in low glucose Dulbecco's Modified Eagle's medium (DMEM) supplemented with 100 U/mL streptomycin and penicillin. One day prior to transfection, the cells were plated in 96-well plates at 1.5×10^4 cells per well. After reaching 70% confluence, plasmid peroxisome proliferator responsive element-luciferase (PPRE-Luc) with firefly luciferase reporter gene and the control plasmid phRL-TK with renilla luciferase reporter gene were transfected into the cells. After 24 hours, the medium was replaced with either fresh medium (negative control) or fresh medium containing a test compound (10 mg/mL) or pioglitazone (positive control). Non-transfected cells were used as blank. After a further 24 hours, the expression of luciferases was measured using the Dual Luciferase Reporter Gene Assay Kit (Promega). The percent activation (T %) was calculated as [(L1sample−L1Blank)/(L1Negative−L1Blank)]/[(L2Sample−L2Blank)/(L2Negative−L2Blank)]×100%, where L1 represents the value for the value for firefly luciferase and L2 the value for Renilla luciferase. Xing-hua Z., Jufang Y., LiFan, W., Dacheng Y., “Synthesis and antidiabetic activity of β-acetamido ketones,” Acta Pharmaceutica Sinica 1(2):100-105 (2011).

[5] = target: α-Glucosidase from Saccharomyces cerevisiae; experiment: α-Glucosidase inhibitory activity (chromogenic method); type: biochemical; conditions: mean ± S.E.M., n = 6
Description: The α-Glucosidase inhibitory activity of each compound was determined according to the chromogenic method described by Chapdelaine et al with slight modifications. See, Chapdelaine P., Tremblay R. R., Dube, J. Y., “P-Nitrophenol-alpha-D-gluco-pyranoside as substrate for measurement of maltase activity in human semen,” Clin. Chem., 24: 208-211 (1978). α-Glucosidase from Saccharomyces cerevisiae and substrate solution […] (PNPG) were prepared with 0.1 mol L^−1 of Na-phosphate buffer (pH 6.8). The inhibitors were reconstituted in […] phosphate buffer in a 96-well microplate and incubated with […] α-Glucosidase at 37° C. for 15 minutes, and then 30 μL substrate was added. After incubation with substrate for 5 minutes, release of p-nitrophenol was measured at 405 nm by spectrophotometry. Percentage of enzyme inhibition was calculated according to {1−(Asample−Ablank)/Acontrol}×100, where Asample represents absorbance of test samples, Acontrol represents absorbance of solution without sample, and A blank represents absorbance in presence of solution without substrate.

[6] = 2 h after 200 μg/kg body weight orally
[7] = 4 h after 200 μg/kg body weight orally
[8] = 6 h after 200 μg/kg body weight orally
[9] = 24 h after 200 μg/kg body weight orally
[10] = 7 day, 200 μg/kg body weight orally daily
[11] = 7 days rest period after 21 days of treatment, 200 μg/kg orally
[12] = 14 day, 200 μg/kg body weight orally daily
[13] = 21 day, 200 μg/kg body weight orally daily

T1 sequence (P27487 whole entry, species assumed): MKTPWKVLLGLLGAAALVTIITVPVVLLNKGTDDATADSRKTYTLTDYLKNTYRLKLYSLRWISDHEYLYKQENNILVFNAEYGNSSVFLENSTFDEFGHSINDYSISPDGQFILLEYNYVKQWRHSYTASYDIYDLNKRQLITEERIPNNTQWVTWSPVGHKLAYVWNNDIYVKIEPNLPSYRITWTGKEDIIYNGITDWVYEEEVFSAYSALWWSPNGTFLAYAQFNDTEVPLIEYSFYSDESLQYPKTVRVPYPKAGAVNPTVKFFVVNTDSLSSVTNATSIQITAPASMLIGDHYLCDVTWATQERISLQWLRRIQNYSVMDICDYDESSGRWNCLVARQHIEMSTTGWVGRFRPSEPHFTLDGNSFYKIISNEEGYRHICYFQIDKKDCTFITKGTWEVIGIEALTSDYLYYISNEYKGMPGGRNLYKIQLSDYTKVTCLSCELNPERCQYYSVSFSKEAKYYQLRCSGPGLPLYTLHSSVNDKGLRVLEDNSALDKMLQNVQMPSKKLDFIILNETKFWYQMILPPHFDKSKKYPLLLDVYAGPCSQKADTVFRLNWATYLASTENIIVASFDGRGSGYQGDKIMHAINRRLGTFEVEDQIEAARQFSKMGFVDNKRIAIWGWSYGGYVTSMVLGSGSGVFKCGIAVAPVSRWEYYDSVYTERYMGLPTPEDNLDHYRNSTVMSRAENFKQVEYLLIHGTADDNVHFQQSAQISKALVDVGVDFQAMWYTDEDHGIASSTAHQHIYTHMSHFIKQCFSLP

Compound | % Change in SG [1, 6] [%] | % Change in SG [1, 7] [%] | % Change in SG [1, 8] [%] | % Change in SG [1, 9] [%] | % Change in SG [2, 10] [%] | % Change in SG [2, 11] [%] | % Change in SG [2, 12] [%] | % Change in SG [2, 13] [%] | IC50 [3] [µM] | IC50 [4] [µM] | IC50 [5] [µM] | time of maximum activity post-administration ([1]; acute study, 200 μg/kg orally) [h]
methyl-2-{N-(morpholino)methane}-3-oxo-18β-olean-12-ene-28-oate [Compound 5] | −70.60 | −79.01 | −80.43 | −75.41 | −60.89 | −84.29 | −70.53 | −85.45 | – | – | – | –
C[C@H]1O[C@H](O[C@H]2[C@H](O)[C@@H](O)[C@@H](O[C@H]3[C@H](O)[C@@H](O)C(O)O[C@@H]3CO)O[C@@H]2CO)[C@H](O)[C@@H](O)[C@@H]1N[C@H]1C=C(CO)[C@@H](O)[C@H](O)[C@H]1O (stereo partly shown) [Acarbose, reference compound] | −29.23 | −27.87 | −20.17 | −22.39 | −18.29 | −27.65 | −24.55 | −31.78 | 176 | – | – | –
methyl-2-{4-pyridylidene}-3-oxo-18β-Olean-12-en-28-oate [Compound 2] | −74.70 | −81.67 | −84.30 | −80.78 | −62.35 | −86.25 | −71.78 | −87.54 | – | – | – | –
CC1(C)CC[C@]2(C(=O)O)CC[C@]3(C)C(=CC[C@@H]4[C@@]5(C)CC[C@H](O)C(C)(C)[C@@H]5CC[C@]43C)[C@@H]2C1 [Oleanolic acid, reference compound] | −40.79 | −48.66 | −52.17 | −51.01 | −10.56 | −30.32 | −20.35 | −37.68 | – | 14.9 | – | –
methyl-2-{phenyl-(4-pyridyl)-methane}-3-oxo-18β-olean-12-en-28-oate [Compound 3] | −75.78 | −82.76 | −85.74 | −79.67 | −66.76 | −83.56 | −73.65 | −89.76 | – | – | 0.123 ± 0.004 | –
CCc1ccc(CCOc2ccc(CC3SC(=O)NC3=O)cc2)nc1 (stereo not shown) [Pioglitazone, reference compound] | −32.16 | −22.45 | −12.34 | −13.28 | −11.23 | −43.45 | −18.34 | −50.39 | – | – | – | 2
methyl-2-{(4-pyridyl)-N-morpholinylmethane}-3-oxo-18β-olean-12-en-28-oate [Compound 4] | −78.88 | −85.89 | −90.00 | −88.88 | −67.90 | −86.43 | −74.78 | −90.87 | 0.0044 ± 0.0005 | 0.0078 ± 0.0005 | 0.087 ± 0.001 | –
COC(=O)[C@]12CCC(C)(C)C[C@H]1C1=CC[C@@H]3[C@@]4(C)CCC(=O)C(C)(C)[C@@H]4CC[C@@]3(C)[C@]1(C)CC2 [Compound 1, 3-oxo-oleanolic acid methyl ester] | −69.40 | −71.89 | −79.32 | −73.29 | −59.76 | −81.20 | −68.78 | −84.65 | 0.091 ± 0.0009 | 0.12 ± 0.004 | 1.7 ± 0.03 | –
methyl-2-{N-(morpholino) methane}-3β-hydroxy-3α-phenyl-18β-Olean-12-ene-28-oate [Compound 6] | −73.60 | −80.74 | −82.33 | −77.80 | −61.68 | −85.89 | −70.54 | −86.45 | – | – | – | –
